The record followed here is US9974888B2, “Formulations for drug-coated medical devices” (priority 2010, dated 2018).

SMILES strings stand for the structures.

A short description of the data set: Dye loss from coated membranes type P in stirred saline. Format: physicochemical. The following applies: water-soluble dye, stirred saline at 37° C., 5 min. From the text:
Membranes type P were coated either with a water-soluble dye without resveratrol or combined with resveratrol.

Regarding `Oc1ccc(C=Cc2cc(O)cc(O)c2)cc1` [Resveratrol, resveratrol], the “adhesion of the dye” value is “significantly improved the adhesion of the dye”.
